The numbers were not newly measured in patent US11480580B2, “Methods and reagents to label bacteria and virus and identify their interacting proteins” (priority 2019, dated 2022), which cites them from elsewhere.

In this data set the test system is ZIKV. The following applies: prior studies.

In the case of `CN(C)CCCN1c2ccccc2Sc2ccc(Cl)cc21` [chlorpromazine], the ZIKV infection result was “blocked”.
